Among the data in patent publication US20240092795A1, “PYRIDINE COMPOUNDS AS ALLOSTERIC SHP2 INHIBITORS” (Revolution Medicines, Inc., priority 2017, published 2024) are IC50 values, retold here.

The term IC50 denotes the midpoint of a concentration-inhibition curve.

Chain of SHP2 (Q06124 whole entry): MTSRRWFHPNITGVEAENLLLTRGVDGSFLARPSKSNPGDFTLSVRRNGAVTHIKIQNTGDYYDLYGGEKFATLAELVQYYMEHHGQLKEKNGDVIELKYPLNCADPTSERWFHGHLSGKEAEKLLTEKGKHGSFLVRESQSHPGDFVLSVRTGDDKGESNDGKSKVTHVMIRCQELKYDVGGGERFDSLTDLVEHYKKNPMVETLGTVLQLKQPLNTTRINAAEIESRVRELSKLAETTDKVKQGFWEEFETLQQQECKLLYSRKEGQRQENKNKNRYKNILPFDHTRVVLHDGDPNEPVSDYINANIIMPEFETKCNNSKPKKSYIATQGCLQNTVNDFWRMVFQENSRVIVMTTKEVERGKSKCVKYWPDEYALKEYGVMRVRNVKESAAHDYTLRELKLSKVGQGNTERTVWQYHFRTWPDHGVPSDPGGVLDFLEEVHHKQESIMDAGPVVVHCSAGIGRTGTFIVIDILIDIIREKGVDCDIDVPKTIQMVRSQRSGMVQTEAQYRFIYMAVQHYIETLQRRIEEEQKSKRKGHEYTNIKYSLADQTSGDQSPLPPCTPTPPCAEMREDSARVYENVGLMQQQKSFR

This test addresses SHP2 (Homo sapiens (Human), UniProt Q06124). Kind of test: SHP2 Allosteric Inhibition Assay (DiFMUP prompt fluorescence). The test is classed as biochemical. The note with it: 0.2 nM SHP2 with 0.5 μM Activating Peptide 1 or 2, surrogate substrate DiFMUP, 25° C.; read-out: SHP2 Allosteric Biochem: IC50. The source says: Without wishing to be bound by theory, SHP is allosterically activated through binding of bis-tyrosyl-phosphorylated peptides to its Src Homology 2 (SH2) domains. The latter activation step leads to the release of the auto-inhibitory interface of SHP2, which in turn renders the SHP2 protein tyrosine phosphatase (PTP) active and available for substrate recognition and reaction catalysis. The catalytic activity of SHP2 was monitored using the surrogate substrate DiFMUP in a prompt fluorescence assay format.
The phosphatase reactions were performed at room temperature in 96-well black polystyrene plate, flat bottom, non-binding surface (Corning, Cat #3650) using a final reaction volume of 100 μL and the following assay buffer conditions: 50 mM HEPES, pH 7.2, 100 mM NaCl, 0.5 mM EDTA, 0.05% P-20, 1 mM DTT.
The inhibition of SHP2 by compounds of the disclosure (concentrations varying from 0.00005-10 μM) was monitored using an assay in which 0.2 nM of SHP2 was incubated with 0.5 μM of Activating Peptide 1 (sequence: H2N-LN(pY)IDLDLV(dPEG8)LST (pY)ASINFQK-amide) or Activating Peptide 2 (sequence: H2N-LN(pY)AQLWHA(dPEG8) LTI(pY)ATIRRF-amide). After 30-60-minutes incubation at 25° C., the surrogate substrate DiFMUP (Invitrogen, Cat #D6567) was added to the reaction and activity was determined by a kinetic read using a microplate reader (Envision, Perkin-Elmer or Spectramax M5, Molecular Devices). The excitation and emission wavelengths were 340 nm and 450 nm, respectively. Initial rates were determined from a linear fit of the data, and the inhibitor dose response curves were analyzed using normalized ICso regression curve fitting with control based normalization.
Take `N[C@@H]1CCCC12CCN(c1cnc(-c3cccc(Cl)c3Cl)c(O)c1)CC2` [Example 3, 5-[(1R)-1-amino-8-azaspiro[4.5]decan-8-yl]-2-(2,3-dichlorophenyl)pyridin-3-ol]: the IC50 was 740 nM.
For `N[C@@H]1CCCC12CCN(c1cc(O)c(Sc3cccc(Cl)c3Cl)nc1CO)CC2` [Example 2, 5-[(1R)-1-amino-8-azaspiro[4.5]decan-8-yl]-2-[(2,3-dichlorophenyl)sulfanyl]-6-(hydroxymethyl)pyridin-3-ol], the IC50 is 37 nM.
For `Cc1cc(N2CCC3(CCC[C@H]3N)CC2)cnc1-c1cccc(Cl)c1Cl` [Example 5, (1R)-8-[6-(2,3-dichlorophenyl)-5-methylpyridin-3-yl]-8-azaspiro[4.5]decan-1-amine], the IC50 was determined as 210 nM.
As for `N[C@@H]1CCCC12CCN(c1cc(O)c(-c3cccc(Cl)c3Cl)nc1CO)CC2` [Example 1, 5-[(4R)-4-amino-8-azaspiro[4.5]decan-8-yl]-2-(2,3-dichlorophenyl)-6-(hydroxymethyl)pyridin-3-ol], the IC50 turned out to be 210 nM.
The value for `Cc1cc(N2CCC3(CCC[C@H]3N)CC2)c(CO)nc1-c1cccc(Cl)c1Cl` [Example 4, {3-[(1R)-1-amino-8-azaspiro[4.5]decan-8-yl]-6-(2,3-dichlorophenyl)-5-methylpyridin-2-yl}methanol] was 69 nM.
